A value given as a limit tells only on which side of the number the result lay.

In this test the target is T1, human GLP-1 receptor (Homo sapiens, UniProt P43220).
T1 construct: expressed in transfected cells
T1 sequence (P43220 24-463): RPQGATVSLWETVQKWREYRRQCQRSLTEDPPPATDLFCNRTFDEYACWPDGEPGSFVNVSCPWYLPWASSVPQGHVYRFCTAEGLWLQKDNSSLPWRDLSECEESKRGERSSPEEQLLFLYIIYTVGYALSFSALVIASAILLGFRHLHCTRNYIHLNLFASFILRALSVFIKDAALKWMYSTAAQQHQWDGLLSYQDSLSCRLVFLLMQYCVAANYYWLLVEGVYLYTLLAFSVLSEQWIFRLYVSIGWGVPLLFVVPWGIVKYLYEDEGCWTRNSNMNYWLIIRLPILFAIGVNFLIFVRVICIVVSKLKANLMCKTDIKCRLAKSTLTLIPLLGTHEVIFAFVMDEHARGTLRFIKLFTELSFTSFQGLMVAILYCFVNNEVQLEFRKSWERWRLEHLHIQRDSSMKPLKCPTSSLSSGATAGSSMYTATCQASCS
The experiment in a line: GLP-1R cAMP assay (cAMP accumulation in CHO cells stably overexpressing the human GLP-1 receptor, HitHunter kit). It counts as cell-based. As to conditions: CHO cells stably overexpressing human GLP-1R, 30 min, 20-point dose response in triplicate. An outline of the steps:
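CHO cells stably expressing the human receptor (10,000/well) in HBSS with 10 mM HEPES and 625 μM IBMX, given compound as a 20-point dose response in triplicate for 30 min. cAMP was read by luminescent enzyme-complementation detection after overnight incubation, and EC50 was fitted from dose-response curves.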
For orientation: cAMP levels reflect the balance of adenylyl cyclase and phosphodiesterase activity.
In turn, `C[C@H]1C[C@@H](Oc2ccnc(COc3ccc(F)cc3F)n2)CCN1Cc1nc2ccc(C(=O)O)cc2n1CCOCC(F)(F)F` [Compound 588, 2-{[(2S,4S)-4-({2-[(2,4-Difluorophenoxy)methyl]pyrimidin-4-yl}oxy)-2-methylpiperidin-1-yl]methyl}-1-[2-(2,2,2-trifluoroethoxy)ethyl]-1H-1,3-benzodiazole-6-carboxylic acid] registered an EC50 of under 0.1 nM.

`C[C@@H](Cn1c(CN2CC[C@H](Oc3ccnc(COc4ccc(F)cc4F)n3)C[C@@H]2C)nc2ccc(C(=O)O)cc21)OC1CC1` [Compound 612, 1-((S)-2-cyclopropoxypropyl)-2-(((2S,4S)-4-((2-((2,4-difluorophenoxy)methyl)pyrimidin-4-yl)oxy)-2-methylpiperidin-1-yl)methyl)-1H-benzo[d]imidazole-6-carboxylic acid] had a concentration for a half-maximal effect (EC50) of 1 to 10 nM.

In turn, `C[C@H](Cn1c(CN2CC[C@H](Oc3ccnc(COc4ncc(F)cc4F)n3)C[C@@H]2C)nc2c(F)cc(C(=O)O)cc21)OC(F)F` [Compound 620, 1-((R)-2-(difluoromethoxy)propyl)-2-(((2S,4S)-4-((2-(((3,5-difluoropyridin-2-yl)oxy)methyl)pyrimidin-4-yl)oxy)-2-methylpiperidin-1-yl)methyl)-4-fluoro-1H-benzo[d]imidazole-6-carboxylic acid] came in with a 50% effective concentration (EC50) of 0.1 to 1 nM.

Compound `CC(c1nc2ccc(C(=O)O)cc2n1C[C@@H]1CCO1)N1CC[C@H](Oc2ccnc(COc3ccc(F)cc3F)n2)C[C@@H]1C` (mixture of isomers) [Compound 568, 2-{1-[(2S,4S)-4-({2-[(2,4-difluorophenoxy)methyl]pyrimidin-4-yl}oxy)-2-methylpiperidin-1-yl]ethyl}-1-{[(2S)-oxetan-2-yl]methyl}-1H-1,3-benzodiazole-6-carboxylic acid] yielded an EC50 of 0.1 to 1 nM.

`C[C@H]1C[C@@H](Oc2ccnc(COc3ncc(F)cc3F)c2)CCN1Cc1nc2c(F)cc(C(=O)O)cc2n1C[C@@H]1CCO1` [Compound 619, 2-(((2S,4S)-4-((2-(((3,5-Difluoropyridin-2-yl)oxy)methyl)pyridin-4-yl)oxy)-2-methylpiperidin-1-yl)methyl)-4-fluoro-1-(((S)-oxetan-2-yl)methyl)-1H-benzo[d]imidazole-6-carboxylic acid] displayed an EC50 of 1 to 10 nM.

In the case of `CO[C@H]1COC[C@H]1n1c(CN2CC[C@H](Oc3ccnc(COc4ccc(F)cc4F)n3)C[C@@H]2C)nc2ccc(C(=O)O)cc21` [Compound 577, 2-(((2S,4S)-4-((2-((2,4-Difluorophenoxy)methyl)pyrimidin-4-yl)oxy)-2-methylpiperidin-1-yl)methyl)-1-((3R,4R)-4-methoxytetrahydrofuran-3-yl)-1H-benzo[d]imidazole-6-carboxylic acid], the EC50 lay within 0.1 to 1 nM.

The compound `C[C@H]1C[C@@H](Oc2ccnc(CNc3ncc(F)cc3Cl)n2)CCN1Cc1nc2ccc(C(=O)O)cc2n1C[C@@H]1CCO1` [Compound 624, 2-(((2S,4S)-4-((2-(((3-Chloro-5-fluoropyridin-2-yl)amino)methyl)pyrimidin-4-yl)oxy)-2-methylpiperidin-1-yl)methyl)-1-(((S)-oxetan-2-yl)methyl)-1H-benzo[d]imidazole-6-carboxylic acid] returned an EC50 of 1 to 10 nM.

`C[C@H]1C[C@@H](Oc2ccnc(COc3ccc(F)cc3F)n2)CCN1Cc1nc2ccc(C(=O)O)cc2n1C[C@H]1CCO1` [Compound 562, 2-{[(2S,4S)-4-({2-[(2,4-difluorophenoxy)methyl]pyrimi-din-4-yl}oxy)-2-methylpiperi-din-1-yl]methyl}-1-{[(2R)-oxe-tan-2-yl]methyl}-1H-1,3-benzo-diazole-6-carboxylic acid]: the half-maximal effective concentration (EC50) was in the range of 0.1 to 1 nM.

The compound `C[C@H]1C[C@@H](Oc2ccnc(COc3ccc(F)cc3F)n2)CCN1Cc1nc2ccc(C(=O)O)cc2n1CC1CCC1` [Compound 590, 1-(Cyclobutylmethyl)-2-{[(2S,4S)-4-({2-[(2,4-difluorophenoxy)methyl]pyrimidin-4-yl}oxy)-2-methylpiperidin-1-yl]methyl}-1H-1,3-benzodiazole-6-carboxylic acid] showed an EC50 of 0.1 to 1 nM.

In general, EC50 refers to the concentration that produces a half-maximal response.

Values taken from patent US20260317309A1, “N-HETEROCYLIC GPCR RECEPTOR AGONISTS, PHARMACEUTICAL COMPOSITIONS COMPRISING THE SAME, AND METHODS FOR THEIR USE” (Carmot Therapeutics, Inc., priority 2022, published 2026).
